Reference: US10772884B2, “Sulphate salts of N-(3-(4-(3-(diisobutylamino)propyl)piperazin-1-yl)propyl)-1H-benzo[d]imidazol-2-amine, preparation thereof and use of the same” (ALZPROTECT, priority 2012, dated 2020)

What was measured:
[1] = salt formation results (physical form); type: physicochemical; settings: Acid eq. added 0
Experimental: The hydrochloride, hydrobromide, acetate, tartrate, fumarate, malate, oxalate and sulphate salts of N-(3-(4-(3-(diisobutylamino)propyl)piperazin-1-yl)propyl)-1H-benzo[d]imidazol-2-amine were prepared according to procedures similar to those described in the previous examples or standard salt formation methods well known in the art.

[2] = long term stability (oxidation) in solid state; type: physicochemical; settings: oxidation at the piperazine ring

SMILES: CC(C)CN(CCCN1CCN(CCCNc2nc3ccccc3[nH]2)CC1)CC(C)C [Free base, N-(3-(4-(3-(diisobutylamino)propyl)piperazin-1-yl)propyl)-1H-benzo[d]imidazol-2-amine]
- Physical form [1]: Amorphous powder
- long term stability [2]: long term stability issues
